Consider 33 molecules from patent publication US11618746B2, “Inhibitors of APOL1 and methods of using same” (Vertex Pharmaceuticals Incorporated, priority 2018, dated 2023).

Some results are limits rather than exact numbers.

For the assay, the target named is T1, APOL1 G1 Protein (Homo sapiens, UniProt O14791, I384M/S342G).
T1 sequence (O14791 28-398 S342G/I384M): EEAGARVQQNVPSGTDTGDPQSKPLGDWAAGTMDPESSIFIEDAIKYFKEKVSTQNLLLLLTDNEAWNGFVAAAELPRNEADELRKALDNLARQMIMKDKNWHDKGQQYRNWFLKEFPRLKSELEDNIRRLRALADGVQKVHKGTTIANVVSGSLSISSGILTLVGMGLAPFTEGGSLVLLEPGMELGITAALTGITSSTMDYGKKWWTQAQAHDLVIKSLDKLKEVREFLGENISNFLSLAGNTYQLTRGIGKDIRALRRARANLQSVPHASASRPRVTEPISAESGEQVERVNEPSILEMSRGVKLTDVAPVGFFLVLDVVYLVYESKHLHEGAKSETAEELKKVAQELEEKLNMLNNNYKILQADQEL
Nature of the assay: Trypanosoma brucei brucei lysis assay using APOL1 recombinant protein (AlamarBlue viability readout). The assay is classed as cell-based. The following applies: Trypanosoma brucei brucei (Lister 427 VSG 221 bloodstream form) lysis by 0.05 μg/mL recombinant APOL1 G1, 16 hrs. The text has this: Trypanosoma brucei brucei is a blood stream parasite to which human, gorillas and baboon are immune due to the presence of the APOL1 protein in their HDL particles. The protein is uptaken by the parasite via the TbHpHb receptor located in its flagellar pocket and is bonded by the Hpr protein contained in the HDL particles which triggers the receptor endocytosis by the parasite.
Following endocytosis, the formed vesicle containing the HDL particle matures from early to late endosome, and subsequently to lysosome. The concomitant pH change in the lumen of the vesicle triggers the insertion of the APOL1 protein into the membrane of the late endosome/lysosome and hereby triggers lysosomal membrane premeabilisation and as a further downstream event, trypanosome lysis. Trypanosoma brucei brucei is sensitive to lysis by all three APOL1 variants (G0, G1, and G2).
The Trypanosoma brucei brucei lysis assay is a lysis assay of the parasite using recombinant APOL1 protein variant followed by a fluorescent detection method of viability by the addition of AlamarBlue reagent to the assay well, a general metabolic redox indicator (AlamarBlue assay).
Briefly, the AlamarBlue active compound, the resazurin, a blue, water soluble, non-toxic and cell permeable molecule, which can be followed by absorbance, is reduced by various metabolic pathways into resorufin, a red compound which can be followed by either absorbance or fluorescence. The assay allows the calculation of the percent viability (percent of living Trypanosomes remaining in each well) at the end of a lysis relative to the untreated condition by interpolation of fluorescent values (FLU) on a standard curve with a known amount of seeded trypanosome/well.
Trypanosoma brucei brucei (ATCC, Cat. No. PRA-382) • Lister 427 VSG 221 bloodstream form.
Thaw/Expansion Media (ATCC Medium 2834 Modified HMI-9 Medium)
Equipment • E1-Clip Tip pipette 12 channel adjustable 2-125 μL, Cat. No. 4672070BT • ThermoFisher MultiDrop 384, Cat. No. 5840300 • Multidrop • Agilent Bravo, Cat. No. G5409A • Bravo • SpectraMax M5
Trypanosoma brucei brucei Culture
Step 2, Day 4 • Centrifuge at 800×g for 5 minutes at room temperature. • Resuspend in 1 mL media. • Make a 1:25 fold dilution (10 μL/240 μL media). • Count on a hemocytometer (after adding parasites). • Let sit for 1-2 minutes for the parasites to settle. • Count should be approximately 100 viable motile parasites/16 grid or approximately 25×10^6 parasites/flask. • Passage the parasites by adding 1×10^6 parasites/T75 flask in 20 mL media. • Passage the parasites by adding 2.33×10^6 parasites/T175 flask in 46.6 mL media. • For every T75 flask should make enough for approximately 1.5×384 well assay plates. • For every T175 flask should make enough for approximately 3.8×384 well assay plates.
Step 3. Day 6 • Centrifuge at 800×g for 5 minutes. • Resuspend in 3 mL assay media (No phenol red, no FBS) per 75 starting flask. • Resuspend in 7 mL assay media (No phenol red, no FBS) per 175 flask • Make a 1:25 fold dilution. • Count by hemocytometer. • Every T75 flask set up should have approximately 75×10^6 parasites/flask (verify doubling time=8.7 hrs 1 hr). • Every T175 flask set up should have approximately 175×10^6 parasites/flask (verify doubling time=8.7 hrs±1 hr). • Require 46×10^6 parasites per 384 well plate (at 120,000 parasites per well).
Step 2, Day 2 • Centrifuge at 800×g for 5 minutes at room temperature. • Resuspend in 1 mL media. • Make a 1:25 fold dilution (10 L/240 μL media). • Let sit for 1-2 minutes for the parasites to settle. • Count should be approximately 100 viable motile parasites/16 grid or approximately 8×10^6 parasites per flask. • Passage the parasites by adding 1.25×10^6 parasites per T75 flask in 20 mL media. • For every T75 flask set up should have approximately 1.5×384 well assay plates. • For every T175 flask setup should have approximately 3.8×384 well assay plates. […]
Take `O=C1NC[C@@H](O)[C@@H]1NC(=O)C(F)(F)Cc1c(-c2ccc(F)cc2)[nH]c2c(F)cc(F)cc12` [Compound 95, 3-[5,7-difluoro-2-(4-fluorophenyl)-1H-indol-3-yl]-2,2-difluoro-N-[(3S,4R)-4-hydroxy-2-oxo-pyrrolidin-3-yl]propanamide]: the half-inhibitory concentration (IC50) is below 250 nM.

Consider `O=C(CCc1c(-c2ccc(F)cc2)[nH]c2ccc(O)cc12)N[C@H]1CCNC1=O` [Compound 55, 3-[2-(4-fluorophenyl)-5-hydroxy-1H-indol-3-yl]-N-[(3S)-2-oxopyrrolidin-3-yl]propanamide], for which the IC50 was above 1000 nM.

With `O=C(CCc1c(-c2ccc(F)cc2)[nH]c2ccc(OCc3ccccc3)cc12)N[C@H]1CCNC1=O` [Compound 54, 3-[5-benzyloxy-2-(4-fluorophenyl)-1H-indol-3-yl]-N-[(3S)-2-oxopyrrolidin-3-yl]propanamide], the IC50 lay in the range of 250 to 1000 nM.

With `O=C1C[C@H](NC(=O)CCc2c(-c3ccc(F)cc3)[nH]c3c(F)cc(F)cc23)C(=O)N1` [Compound 5], the IC50 was in the range of 250 to 1000 nM.

In the case of `O=C(CCc1c(-c2ccccc2)[nH]c2ccccc12)N[C@@H]1C(=O)NC[C@H]1O` [Compound 86], the IC50 was below 250 nM.

With `N#Cc1cc(F)cc2c(CCC(=O)N[C@@H]3C(=O)NC[C@H]3O)c(-c3ccc(F)cc3)[nH]c12` [Compound 42], the half-inhibitory concentration (IC50) was below 250 nM.

Consider `N#Cc1cc(F)c2[nH]c(-c3ccc(F)cc3)c(CCC(=O)N[C@H]3CCNC3=O)c2c1` [Compound 28], for which the IC50 was above 1000 nM.

Turning to `O=C1C[C@@H](NC(=O)CCc2c(-c3ccc(F)cc3)[nH]c3c(F)cc(F)cc23)C(=O)N1` [Compound 16], the IC50 lay in the range of 250 to 1000 nM.

In the case of `O=C(CCc1c(-c2ccc(F)cc2)[nH]c2c(F)cc(F)cc12)N[C@H]1CCNC1=O` [Compound 3, 3-[5,7-difluoro-2-(4-fluorophenyl)-1H-indol-3-yl]-N-[(3S)-2-oxopyrrolidin-3-yl]propanamide], the IC50 was below 250 nM.

With `O=C(CCc1c(-c2ccc(Cl)cc2)[nH]c2ccccc12)N[C@@H]1C(=O)NC[C@H]1O` [Compound 128, 3-[2-(4-chlorophenyl)-1H-indol-3-yl]-N-[(3S,4R)-4-hydroxy-2-oxo-pyrrolidin-3-yl]propanamide], the half-maximal inhibitory concentration (IC50) was below 250 nM.

As for `O=C(CCc1c(-c2ccc(F)cc2)[nH]c2c(F)cc(Cl)cc12)N[C@@H]1C(=O)NC[C@H]1O` [Compound 30], the IC50 is below 250 nM.

With `O=C(CCc1c(-c2ccc(OC(F)F)cc2)[nH]c2c(F)cc(F)cc12)N[C@@H]1C(=O)NC[C@H]1O` [Compound 102], the IC50 was below 250 nM.

For `Cc1cc(-c2[nH]c3ccccc3c2CCC(=O)N[C@@H]2C(=O)NC[C@H]2O)ccc1F` [Compound 125], the IC50 is below 250 nM.

For `O=C(CCc1c(-c2ccccc2)[nH]c2cccc(F)c12)N[C@@H]1C(=O)NC[C@H]1O` [Compound 114, 3-(4-fluoro-2-phenyl-1H-indol-3-yl)-N-[(3S,4R)-4-hydroxy-2-oxo-pyrrolidin-3-yl]propanamide], the IC50 was in the range of 250 to 1000 nM.

In the case of `N#Cc1ccc(-c2[nH]c3c(F)cc(F)cc3c2CCC(=O)N[C@H]2CCNC2=O)cc1` [Compound 20, 3-[2-(4-cyanophenyl)-5,7-difluoro-1H-indol-3-yl]-N-[(3S)-2-oxopyrrolidin-3-yl]propanamide], the IC50 was below 250 nM.

Consider `CC1C[C@H](NC(=O)CCc2c(-c3ccc(F)cc3)[nH]c3c(F)cc(F)cc23)C(=O)N1` (mixture of isomers) [Compound 6], for which the IC50 is 250 to 1000 nM.

Consider `O=C(CCc1c(-c2ccc(F)cc2)[nH]c2ccc(C(F)(F)F)cc12)N[C@@H]1C(=O)NC[C@H]1O` [Compound 108, 3-[2-(4-fluorophenyl)-5-(trifluoromethyl)-1H-indol-3-yl]-N-[(3S,4R)-4-hydroxy-2-oxo-pyrrolidin-3-yl]propanamide], for which the IC50 was below 250 nM.

As for `O=C(CCc1c(-c2ccc(F)cc2)[nH]c2ccc(F)cc12)N[C@@H]1C(=O)NC[C@H]1O` [Compound 46], the IC50 is below 250 nM.

As to `O=C(CCc1c(-c2ccc(F)c(F)c2)[nH]c2c(F)cc(F)cc12)N[C@@H]1C(=O)NC[C@H]1O` [Compound 105], the IC50 was below 250 nM.

Take `CN(C(=O)CCc1c(-c2ccc(F)cc2)[nH]c2ccc(F)cc12)C1CCNC1=O` (stereo not drawn) [Compound 50]: the IC50 was 250 to 1000 nM.

On to `O=C(CCc1c(-c2ccccc2)[nH]c2ccc(Cl)cc12)N[C@@H]1C(=O)NC[C@H]1O` [Compound 44, 3-(5-chloro-2-phenyl-1H-indol-3-yl)-N-[(3S,4R)-4-hydroxy-2-oxo-pyrrolidin-3-yl]propanamide], for which the IC50 is below 250 nM.

As to `O=C(CCc1c(-c2ccc(F)cc2)[nH]c2ccc(F)cc12)N[C@H]1CCNC1=O` [Compound 47], the IC50 was below 250 nM.

For the molecule `O=C(CCc1c(-c2ccccc2)[nH]c2c(Br)cccc12)N[C@@H]1C(=O)NC[C@H]1O` [Compound 70], the IC50 was below 250 nM.

In the case of `CC1(NC(=O)CCc2c(-c3ccc(F)cc3)[nH]c3c(F)cc(F)cc23)CCNC1=O` (racemic) [Compound 14], the IC50 is below 250 nM.

Take `N#Cc1ccc(-c2[nH]c3ccccc3c2CCC(=O)N[C@@H]2C(=O)NC[C@H]2O)cc1` [Compound 116, 3-[2-(4-cyanophenyl)-1H-indol-3-yl]-N-[(3S,4R)-4-hydroxy-2-oxo-pyrrolidin-3-yl]propanamide]: the IC50 is below 250 nM.

With `O=C(CCc1c(-c2ccc(F)cc2)[nH]c2c(F)cccc12)N[C@H]1CCNC1=O` [Compound 75], the IC50 is below 250 nM.

Take `O=C(CCc1c(-c2ccc(F)cc2)[nH]c2c(F)ccc(F)c12)N[C@H]1CCNC1=O` [Compound 78]: the IC50 was above 1000 nM.

On to `O=C(CCc1c(-c2ccccc2)[nH]c2c(F)c(F)ccc12)N[C@@H]1C(=O)NC[C@H]1O` [Compound 59], for which the IC50 was below 250 nM.

In the case of `O=C(CCc1c(-c2ccc(F)cc2)[nH]c2c(F)cc(C(F)(F)F)cc12)N[C@@H]1C(=O)NC[C@H]1O` [Compound 101, 3-[7-fluoro-2-(4-fluorophenyl)-5-(trifluoromethyl)-1H-indol-3-yl]-N-[(3S,4R)-4-hydroxy-2-oxo-pyrrolidin-3-yl]propanamide], the IC50 was below 250 nM.

On to `COc1ccc(-c2[nH]c3ccccc3c2CCC(=O)N[C@@H]2C(=O)NC[C@H]2O)cc1` [Compound 121], for which the IC50 was below 250 nM.

As for `O=C(CCc1c(-c2ccccc2)[nH]c2c(C(F)(F)F)cccc12)N[C@@H]1C(=O)NC[C@H]1O` [Compound 112, N-[(3S,4R)-4-hydroxy-2-oxo-pyrrolidin-3-yl]-3-[2-phenyl-7-(trifluoromethyl)-1H-indol-3-yl]propanamide], the IC50 was above 1000 nM.

For `O=C(CCc1c(-c2ccc(OC(F)F)cc2)[nH]c2c(F)cc(F)cc12)N[C@H]1CCNC1=O` [Compound 21], the IC50 is below 250 nM.

For `O=C(CCc1c(-c2ccc(F)cc2)[nH]c2c(F)c(F)ccc12)N[C@@H]1C(=O)NC[C@H]1O` [Compound 58], the IC50 is below 250 nM.

As usually defined, the IC50 is the concentration at which inhibition is half-maximal.
